Measured values published in patent US20220168310A1, “INHIBITION OF ADENOVIRUS WITH FILOCICLOVIR” (Microbiotix, Inc., priority 2019, published 2022).
“Also recorded” adds a separate entry of the source.

Tests used:
[1] = test system: AdV6; test: Immunofluorescence assay (DBP and hexon staining), AdV6-infected A549 cells; format: cell-based, human adenovirus; conditions: 27 hours post-infection
Experimental: Human A549 cells on glass coverslips in 6-well plates were infected at an MOI of 5 PFU/cell with either AdV5 or AdV6 or were mock-infected. After 1 hour, filociclovir was added to a final concentration of 0, 4, 10, or 40 μM. At 27 hours post-infection, the A549 cells were fixed in paraformaldehyde (3.7% in PBS) and permeabilized with methanol. Cells were stained for the Adenovirus DNA-binding protein and adenovirus hexon. DBP staining will be […] and uniform during early AdV infection (prior to AdV DNA replication). DBP associates with replication centers as the infection progresses. The replication centers are initially small “dots” (each dot results from one incoming AdV genome). The replication centers will expand and “multiply” as DNA replication takes place. The nuclei become enlarged and misshapen as infection progresses. AdV hexon, the most abundant component of the AdV viral capsid, is not expressed until after DNA replication is taking place and is therefore considered to be a “late” AdV protein.

[2] = test system: adenovirus 19 (AdV19); test: Efficacy against adenovirus 19 (data not shown)
[3] = test system: adenovirus 4 (AdV4); test: Efficacy against adenovirus 4 (data not shown)
[4] = Pharmacokinetics of filociclovir in immunosuppressed hamsters; format: in vivo, Syrian hamsters; conditions: 6 hours after administration
Experimental: In order to test the pharmacokinetics of filociclovir, we use a Syrian male hamster model of adenovirus infection. Syrian hamsters were given either an oral (p.o. 50 mg/kg) or intravenous (i.v. 10 mg/kg) dose of filociclovir. […] For i.v. administration, filociclovir was dissolved in DMSO (Sigma D2650) and then diluted with water to a final concentration of 5 mg/ml for filociclovir and 75% DMSO. The dosing solutions were prepared one day before use and stored at 4° C. Male Syrian hamsters were purchased from Envigo (Hackensack, N.J.) at ˜100 g body weight. […] The animals received three injections of CP before the administration of filociclovir. Two groups of animals (12 hamsters/group) were used for the two routes of administrations. In addition, three untreated animals (the same three hamsters for both routes) served as mock controls. The p.o. and i.v. experiments were performed on two consecutive days. As the hamsters weighed approximately 100 g, (+/−10%), they were administered 1 ml and 0.2 ml for the p.o. and i.v. routes, respectively, to achieve the desired dose. For both routes, 3 hamsters were sacrificed at 0.5, 1, 3, and 6 hr post dosing. […]

[5] = test system: adenovirus 6 (AdV6); test: CPE reduction assay, adenovirus 6; format: cell-based, human adenovirus
Experimental: (§1) Similar experiments were carried out with filociclovir against adenovirus 6, adenovirus 7, and adenovirus 8.

[6] = test system: adenovirus 37 (AdV37); test: Efficacy against adenovirus 37 (data not shown)
[7] = test system: AdV6; test: Delayed treatment with 10 mg/kg filociclovir after AdV6 challenge in immunosuppressed hamsters (Example 7); format: in vivo, Syrian hamsters
Experimental: Aliquots are allowed to equilibrate to room temperature before dosing.
Hamsters were distributed into 8 groups, 15 hamsters each (Table 5), immunosuppressed as described above, and then injected i.v. with vehicle or 4×10^10 plaque forming units (PFU) of AdV6 per kg. Filociclovir was administered p.o. at 10 mg/kg q.d., starting at one day before, or 1, 2, 3, or 4 days after AdV6 injection.
Body weights and any signs of morbidity in the hamsters were recorded daily. At 7 days post challenge, 5 hamsters from each group (designated at the start of the experiment) were sacrificed, and gross pathological observations were performed.

[8] = test system: adenovirus 7 (AdV7); test: CPE reduction assay, adenovirus 7; format: cell-based, human adenovirus
Experimental: as §1

[9] = test system: adenovirus 3 (AdV3); test: Efficacy against adenovirus 3 (data not shown)
[10] = test system: Adenovirus 5 (AdV5); test: Cytopathic effects (CPE) reduction assay, AdV5 in HFF cells, 384-well; format: cell-based, human adenovirus
Experimental: Antiviral and cytotoxicity data were obtained in a series of three to five separate experiments for each virus to provide an accurate estimate of antiviral activity and statistical data. Each assay included positive and negative control compounds as well as infected and uninfected controls to ensure the integrity of the experiment.
The CPE reduction assays were performed in monolayers of human foreskin fibroblast (HFF) cells (5000/well) in 384-well plates in assay media consisting of MEM with Earle's salts, 2% FBS and standard concentrations of L-glutamine, penicillin and gentamycin. 5000 cells were seeded in 384-well microtiter plates and incubated at 37° C. in a humidified 5% CO2 incubator for 24 hours to allow for formation of confluent monolayers.
Cell monolayers were infected at a multiplicity of infection (MOI) of approximately 0.005 PFU/cell with virus strains including AdV5. […] Cytopathology was determined by the addition of CellTiter-Glo® reagent (Promega, Madison, Wis.).

[11] = test system: adenovirus 8 (AdV8); test: CPE reduction assay, adenovirus 8; format: cell-based, human adenovirus; conditions: unidentified adenovirus, unit not given in Table 2 (Table 1 in μM)
Experimental: as §1

For Nc1nc2c(ncn2/C=C2/CC2(CO)CO)c(=O)[nH]1 [FCV, 2-amino-9-{(Z)-[2,2-bis(hydroxymethyl)cyclopropylidene]methyl}-3,9-dihydro-6H-purin-6-one], the hexon-positive cells ([1]; AdV6, 4 μM) was “Some hexon-positive cells”, the hexon-positive cells ([1]; AdV6, 10 μM) was “extremely few hexon-positive cells” and the hexon-positive cells ([1]; AdV6, 40 μM) was “No hexon-positive cells”. For the same compound, the “treat or prevent infection” value [2] was “effective”, the “treat or prevent infection” value [3] was “effective” and the detectability after administration ([4]; i.v. 10 mg/kg) was “still detectable”. The detectability after administration ([4]; p.o. 50 mg/kg) was “still detectable”, the CC50/EC50 [5] was 27 and the EC50 ([5]; Human mastadenovirus C, unit not given in Table 2 (Table 1 in μM)) was 3.67 µM. The “treat or prevent infection” value [6] was “effective”, the “morbidity and mortality (survival)” value ([7]; 10 mg/kg p.o. q.d. started day −1, +1, +2, +3 (p=0.0005) or +4 (p=0.0023) vs AdV6+Vehicle, listed as filociclovir) was “efficacious; also recorded: effective to prevent morbidity and mortality” and the “prevention of pathology caused by intravenous AdV6 infection” value ([7]; 10 mg/kg p.o. q.d., up to 4 days post-infection) was “safe and effective”. For the same compound, the “AdV6 replication in the liver” value ([7]; 10 mg/kg, start 4 days post challenge) was “inhibits AdV6 replication in the liver”, the “liver pathology, transaminase (ALT) levels” value ([7]; 10 mg/kg, start up to 4 days post challenge, day +4 p=0.1452) was “mitigates liver pathology” and the CC50/EC50 [8] was >144. The EC50 ([8]; Human mastadenovirus B, unit not given in Table 2 (Table 1 in μM)) was 1.04 µM, the “treat or prevent infection” value [9] was “effective” and the “concentration as low as which is effective to reduce AdV replication” value ([10]; FIG. 1, AdV5) was 0.2 µM. It also gave an EC50 ([10]; Human mastadenovirus C, AdV5, HFF cells, 384 well CPE, average and SD from five independent experiments, read-out: EC50) of 2.2 ± 0.4 µM and an EC50 [11] of 2.45 µM.
